Literature values as cited in patent US8067405B2, “Superoxide dismutase mimics for the treatment of ocular disorders and diseases” (Novartis AG, priority 2002, dated 2011).

Tested on: diabetogenic T-cell clone
Settings: in a cloned cell

CCN1C=CC=C/C1=C1/C2=NC(=C(c3cccc[n+]3CC)C3=NC(=C(c4cccc[n+]4CC)c4ccc([n-]4)C(c4cccc[n+]4CC)=C4C=CC1=N4)C=C3)C=C2.[Cl-].[Cl-].[Cl-].[Cl-].[Cl-].[Mn+3] [AEOL10113]
onset of diabetes: delay the onset of diabetes
